Test results reported in US6465614B1, “High-affinity response-selective C-terminal analogs of C5a anaphylatoxin” (priority 1994, dated 2002).
Read-outs that look alike come from different tables or passages of the source. Ends that are not written are not given here.

Columns and labels:
serum carboxypeptidases = test: Stability toward serum carboxypeptidases (incubation in normal human serum, HPLC); assay type: in vitro ADME; details: 37° C., 1 h
Protocol: FIG. 10. HPLC profiles of decapeptide analogs. FIG. 10A: HPLC of […] (peptide/Sequence I.D. No. 2); a=purified peptide; b=des-Arg peptide ([…]; Sequence I.D. No. 24); c=des-Arg peptide in saline, no incubation; d=des-Arg peptide in saline with incubation for 1 h at 37° C.; e=des-Arg peptide in normal human serum with incubation for 1 h at 37° C. FIG. 10B: HPLC of […]aR (Sequence I.D. No. 10); a=purified peptide; b=peptide in saline, no incubation; c=peptide in saline with incubation for 1 h at 37° C.; d=peptide in normal human serum with incubation for 1 h at 37° C. Solvent system 1: 70 mM triethylamine/phosphoric acid buffer, pH-2.3. Solvent system 2: 60% acetonitrile in the Solvent 1 buffer. Linear gradient of 30-50% solvent 2 at.1%/min, slope=1 ml/min, absorbance monitored at 214 nm.
Both peptides were incubated in normal human serum at 37° C. for 1 h and thereafter reanalyzed on HPLC.

guinea-pig platelets = test: Guinea-pig platelet aggregation assay; assay type: cell-based; details: for Platelet Aggreg (threshold concentration producing visible platelet aggregation): guinea-pig platelets, threshold response
Protocol: This assay was performed on platelets obtained from the arterial blood of anesthetized male Hartley guinea pigs according to previously published methods (Ember et al., 1992, supra). Briefly, platelet-rich plasma was prepared and diluted to 3×10^8 platelets/ml in 0.39% sodium citrate solution. Peptide samples were diluted in a stepwise fashion in 1.5-fold dilutions and placed in 96-well microplates. A […] peptide sample, […] of platelet-rich plasma, and one 3 mm glass bead were placed in each well. The plates were shaken horizontally at 100 rpm for 5 min at 37° C. Platelet aggregation was evaluated visually in an inverted microscope at 40× magnification. The greatest dilution of peptide producing visible aggregation was scored as the threshold concentration for activity. Natural C5a and C3a were included as internal standards. At least three independent duplicate determinations were conducted for every peptide.

human neutrophils (PMN) [1] = molecular target: T1, human neutrophils (PMN) (Homo sapiens, UniProt P21730); assay type: cell-based; details: human neutrophils, β-glucuronidase release; read-out: PMN Enzyme Release EC50
T1 sequence (P21730 1-350): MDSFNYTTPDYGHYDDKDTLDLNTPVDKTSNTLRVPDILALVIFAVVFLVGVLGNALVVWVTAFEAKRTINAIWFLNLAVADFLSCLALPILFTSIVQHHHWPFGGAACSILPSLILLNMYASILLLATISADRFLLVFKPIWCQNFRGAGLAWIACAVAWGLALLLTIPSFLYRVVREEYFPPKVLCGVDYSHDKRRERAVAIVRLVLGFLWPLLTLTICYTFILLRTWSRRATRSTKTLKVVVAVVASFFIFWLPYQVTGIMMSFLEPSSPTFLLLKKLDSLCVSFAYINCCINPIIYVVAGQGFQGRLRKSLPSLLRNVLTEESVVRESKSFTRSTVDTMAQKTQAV
Protocol: The release of glucuronidase from human neutrophils was determined as described by Schroder et al. (1987), J. Immunol., 139: 3474-3483. Briefly, human neutrophils were pretreated with cytochalasin B (5 μg/ml, 10 min, 37° C.). The cells (10^6) were incubated in the presence of stimulants for 60 minutes at 37° C. in a final volume of 200 μl and then centrifuged. The supernatant was collected and 50 μl were incubated with 50 μl of 0.01 M P-nitrophenyl-β-D-glucuronide (in 0.1 M sodium acetate at pH 4 for 18 h) as triplicate determinations in 96-well microtiter plates (Corning). The reaction was stopped by addition of 100 μl of 0.4 M gly buffer at pH 10. The reaction developed color that was read at 405 nm in a Titertec Multiscan (MCC/340) ELISA reader. The β-glucuronidase released was expressed as the percentage of total enzyme in the cell that could be released by addition of 0.2% Triton X-100 (Pierce).

human fetal artery = molecular target: T2, human fetal artery (Homo sapiens, UniProt P21730); test: Smooth muscle contraction of human fetal artery (spasmogenic assay); assay type: cell-based; details: for log potency ratio at the EC50 level compared to C5a / % of C5a potency: fetal artery; for % of C5a potency: from log potency ratio at EC50 level
T2 sequence (P21730 1-350): T1 sequence (P21730 1-350)
Protocol: (§1) Tissue strips were suspended in 2 ml organ baths, containing physiological salt solution (Krebs-Ringers solution: 118 mM NaCl, 4.7 mM KCl, 2.5 mM CaCl2, 25 mM NaHCO3, 1.2 mM KH2PO4, 1.2 mM MgSO4, 10 mM Glucose) maintained at 37° C., pH 7.4 and continuously aerated with a 95% CO2 mixture. Each tissue preparation was equilibrated for 1 hr prior to testing with peptides. All drugs were kept on ice during the procedure and isometric tensions were measured using strain-gauge transducers (Grass FT-03) with a computerized chart recording system (MacLab/8). After the contraction to each peptide reached a plateau, histamine (10 μM) was added to obtain the maximum tissue response. Because tachyphylaxis occurs rapidly to single doses of C5a or peptides, cumulative dose-response curves could not be obtained. Instead, the dose-response profile was compiled from multiple strips from each tissue. After exposing each strip to a single concentration of the peptide followed by supramaximal histamine, the response was expressed as a percentage of the maximal contraction to histamine. Full dose-response curves for C5a (human recombinant C5a; Sigma) or individual peptides were performed in each experiment for each tissue and the EC50 values (i.e., concentration of peptide producing 50t of the maximal response to each peptide) obtained by probit analysis. pD2 transforms [−log EC50 (M)] were calculated for each dose-response curve, and means ±SE obtained for each peptide.
Human umbilical cords were obtained from the Mater Misericordiae Hospital, South Brisbane, Queensland within minutes of delivery. The mid-section of the umbilical cord was cut from the placenta, placed in physiological salt solution and stored at 5° C. for up to 24 hrs. […] The fetal arteries were dissected out and cut into longitudinal strips. The intimal surface of the arteries was rubbed with a cotton bud to remove the endothelium. Strips approximately 2 cm×3 mm were suspended in organ baths under 20 mN of resting tension. Arterial strips were tested repeatedly with peptides following a 60 min drug-free period of rest between assays (Taylor et al. (1994), Inflammation, in press).

human neutrophils (PMN) [2] = molecular target: T1, human neutrophils (PMN); assay type: cell-based; details: human neutrophils; read-out: PMN Polarization EC50
Protocol: Neutrophil polarization assays were conducted as described by Ember et al., 1992, supra. Human neutrophils (PMN) were prepared according to the procedure described by Dahinden et al. (1979), J. Immunol., 130: 857-862. The assay for measuring the effect of C5a analogs on PMN polarization was described by Haston & Shields (1985), J. Immunol. Methods, 81: 229-237. Briefly, PMN (1×10^6 cells/ml) were suspended in 10 mM 3- (N-morpholino) propane sulfonic acid (Sigma Chemical Co.) containing EBSS. […] After 10 minutes of incubation at room temperature, the cells were washed twice and stored until microscopic examination. Cells deviating from the typical spherical shape were visually scored as polarized. Results are expressed as percent of polarized cells per total cells counted (300 cells counted/sample).

[3] = test system: guinea-pig lung parenchyma; test: Smooth muscle contraction of guinea-pig lung parenchyma; assay type: cell-based; details: arithmetic mean
Protocol: as §1, with “Each” for “Tissue strips were suspended in 2 ml organ baths, containing physiological salt solution (Krebs-Ringers solution: 118 mM NaCl, 4.7 mM KCl, 2.5 mM CaCl2, 25 mM NaHCO3, 1.2 mM KH2PO4, 1.2 mM MgSO4, 10 mM Glucose) maintained at 37° C., pH 7.4 and continuously aerated with a 95% CO2 mixture. Each”

Row | Compound | cleavage of the C-terminal Arg (serum carboxypeptidases) | Platelet Aggreg (threshold concentration producing visible platelet aggregation) (guinea-pig platelets) [µM] | potency relative to peptide 2 in platelet aggregation (guinea-pig platelets; more potent than peptide 2) | EC50 (human neutrophils (PMN) [1]) [µM] | log potency ratio at the EC50 level compared to C5a (human fetal artery) | % of C5a potency (human fetal artery) [%] | potency relative to peptide 2 in spasmogenic activity (human fetal artery; more potent than peptide 2) | EC50 (human neutrophils (PMN) [2]) [µM] | EC50 [3] [µM] | potency relative to the C-terminal 19-mer of natural sequence (human fetal artery; smooth muscle contraction of human fetal artery (FIG. 1))
1 | CSCC[C@H](NC(=O)[C@H](CC(=O)O)NC(=O)[C@H](CCCCN)NC(=O)[C@H](Cc1ccccc1)NC(=O)[C@H](CO)NC(=O)[C@@H](N)Cc1ccc(O)cc1)C(=O)N1CCC[C@H]1C(=O)N[C@@H](CC(C)C)C(=O)N[C@H](C)C(=O)N[C@@H](CCCNC(=N)N)C(=O)O [peptide 10] | none | 1.3 | about 18 fold | 57.7 | 1.42±0.13 | 4 | about 32 fold | 2.1 | – | –
2 | YSFKDMQLGR-OH [peptide 2] | – | 22.9 | – | 50 | 2.78±0.10 | 0.2 | – | 4 | 28.4 | about 20 times
